PubChem BioAssay (NCI)
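Interpolation was linear, between the two tested concentrations surrounding the appropriate level; five concentrations were tested over 48 hours in 96-well plates. GI50: concentration for 50% inhibition of growth. The concentration for full growth arrest is given as TGI.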

What was measured:
Test in all cases: NCI-60 cell line screen, 48 h
RXF 393 renal = tested on: RXF 393 renal
HOP-62 NSCLC = tested on: HOP-62 NSCLC
HT29 colon = tested on: HT29 colon
SN12C renal = tested on: SN12C renal
NCI-H460 lung = tested on: NCI-H460 lung
SF-268 CNS = tested on: SF-268 CNS
DMS 273 small cell lung = tested on: DMS 273 small cell lung
KM20L2 colon = tested on: KM20L2 colon
NCI-H226 lung = tested on: NCI-H226 lung
HCT-15 colon = tested on: HCT-15 colon

SMILES | TGI (RXF 393 renal) [µM] | TGI (HOP-62 NSCLC) [µM] | TGI (HT29 colon) [µM] | TGI (SN12C renal) [µM] | TGI (NCI-H460 lung) [µM] | TGI (SF-268 CNS) [µM] | TGI (DMS 273 small cell lung) [µM] | TGI (KM20L2 colon) [µM] | TGI (NCI-H226 lung) [µM] | TGI (HCT-15 colon) [µM] | GI50 (RXF 393 renal) [µM] | GI50 (HOP-62 NSCLC) [µM] | GI50 (HT29 colon) [µM] | GI50 (SN12C renal) [µM] | GI50 (NCI-H460 lung) [µM] | GI50 (SF-268 CNS) [µM] | GI50 (NCI-H226 lung) [µM] | GI50 (HCT-15 colon) [µM]
CC(=O)OCC1OC(OCc2ccccc2)C(Br)C(OC(C)=O)C1OC(C)=O (centres undefined) | > 100 | > 100 | > 100 | > 100 | > 100 | > 100 | > 100 | > 100 | > 100 | > 100 |  |  |  |  |  |  |  | 
Clc1ccc(OCc2nnc3n2N=C(c2ccc(Br)cc2)CS3)cc1 | 61.8 |  | > 100 | > 100 | 82 |  | > 100 |  | > 100 | > 100 |  |  |  |  |  |  |  | 
COc1ccc(S(=O)(=O)N[C@H](C(=O)O)c2ccccc2)cc1 | > 100 | > 100 | > 100 | > 100 | > 100 | > 100 | > 100 | > 100 | > 100 | > 100 |  |  |  |  |  |  |  | 
COC1[C@H](NC(=O)OC(C)(C)C)C(=O)N1Cc1ccccc1 (some centres undefined) | > 100 | > 100 | > 100 | > 100 | > 100 | > 100 | > 100 | > 100 | > 100 | > 100 |  |  |  |  |  |  |  | 
COc1cc(/C=C/c2ccc(Br)cc2)cc(OC)c1OC | 54.6 | 49.8 | > 39.3 | 71.8 | 49.4 | 31.2 | > 47.5 | 29.8 | 56.6 | 61.1 |  |  |  |  |  |  |  | 
COC1OC(CBr)C(OC(=O)c2ccccc2)C(OS(=O)(=O)c2ccc(C)cc2)C1Br (centres undefined) | > 100 | > 100 | > 100 | > 100 | > 100 | > 100 | > 100 | > 100 |  | > 100 |  |  |  |  |  |  |  | 
CC1CCC(=O)C(C(O)CC2CC(=O)N(c3ccccc3)C(=O)C2)C1 (centres undefined) | > 100 | > 100 | > 100 | > 100 | > 100 | > 100 | > 100 | > 100 | > 100 |  |  |  |  |  |  |  |  | 
CCOC(=O)/C(C#N)=C1\SS/C(=C(/C#N)C(=O)OCC)S1 | 26.4 | 86.7 | 22.3 | 43.3 | > 100 | 41 |  |  | 38.6 | 61.4 | 13.3 | 26.1 | 3.92 | 19.9 | 32 | 20.5 | 19.6 | 18
CCN(CC)c1ccc(C2NC(=O)c3ccccc3N2)cc1 (centres undefined) | > 100 | > 100 | > 20.8 | > 100 | 7.14 | > 100 |  |  | > 100 | > 100 |  |  |  |  |  |  |  | 
CCCCCCCCCC(CCCC(O)CC(=O)O)OC1OC(COC2OC(C)C(OC(C)=O)C(O)C2O)C(O)C(O)C1OC1OC(CO)C(O)C(O)C1OC1OC(C)C(OC(=O)CC(C)C)C(O)C1O (centres undefined) | > 35 | > 35 | > 35 | > 35 | > 35 | > 35 |  |  | > 35 | > 35 | > 35 | > 35 | > 35 | > 35 | > 35 | > 35 | > 35 | > 35
CN(NC1OC(CO)C(O)C(O)C1O)c1ccccc1 (centres undefined) | > 100 | > 100 | > 100 |  | > 100 | > 100 | > 100 | > 100 | > 100 | > 100 |  |  |  |  |  |  |  | 
CN(C)CCn1cnc2ncccc2c1=O | > 100 | > 100 | > 100 | > 100 | > 100 | > 100 | > 100 | > 100 | > 100 |  |  |  |  |  |  |  |  | 
O=C(COc1ccc(OCC(=O)N2C(=O)CN(c3ccccc3)C2=S)cc1)N1C(=O)CN(c2ccccc2)C1=S | > 100 | > 100 | > 100 | > 100 | > 100 | > 100 |  |  | > 100 | > 100 | > 25 | > 25 | > 25 | > 25 | > 25 |  |  | > 25
ClCc1ccc(Cn2cnc3c(Cl)ncnc32)cc1 | 30.4 | 23.7 | > 100 | 20.5 | 15.6 | 16.5 |  |  | 28.6 | > 36.7 | 13 | 11 | > 45 | 8.46 | 1.34 | 6.03 | 12.7 | 10.6
O=C(O)c1c(Cl)c(Cl)c(Cl)c(Cl)c1C(=O)Nc1ccc2cn[nH]c2c1 | > 100 | > 100 | > 100 | > 100 | > 100 | > 100 |  |  | > 100 | > 100 |  |  |  |  |  |  |  | 
CN1CCN(c2ccc(NC(=O)c3cncnc3Nc3ccc(OCc4cccc(F)c4)c(Cl)c3)cc2)CC1 | 1.9 | 16.1 | 2.65 | 2.75 | 2.47 | 15.9 |  |  | > 50 | 1.91 | 0.956 | 2.53 | 1.1 | 1.13 | 1.14 | 4.91 | 40.9 | 0.889
CCCCCCCCCCCCCCCCc1c(C(=O)OC)nc(NN)[nH]c1=O | > 50 | > 50 | > 50 | > 50 | > 50 | > 50 | > 50 | > 50 |  | > 50 |  |  |  |  |  |  |  | 
CN(C)Cc1ccc(C(C)(C)C)cc1-c1cc(C(C)(C)C)ccc1CN(C)C | > 100 | > 100 | > 100 | > 100 | > 100 | > 100 |  |  | > 100 | > 100 |  |  |  |  |  |  |  | 
